{"source": "patent US20240285634A1", "about": "“COMPOUND AND METHOD FOR TREATING CHEMOTHERAPY-ASSOCIATED GASTROINTESTINAL SIDE EFFECTS” (ONQUALITY PHARMACEUTICALS CHINA LTD., priority 2021, published 2024)", "key": {"[1]": {"test_system": "Chemotherapeutic agent-caused diarrhea models of Balb/c mice", "experiment": "Relieving effect on diarrhea caused by a chemotherapeutic agent (Examples 1-201)", "format": "in vivo", "text": "Construction of mouse animal models: Chemotherapeutic agent-caused diarrhea models of Balb/c mice were constructed according to the administration mode and frequency of the chemotherapeutic agent as shown in Table 3. After administration for several days, mice developed different extents of diarrhea symptoms (as shown in FIG. 1), which were similar to the conditions in human. Thus, chemotherapeutic agent-caused diarrhea models of mice are very good models to mimic diarrhea in human caused by the chemotherapeutic agent.\nBalb/c mice were fed for 1 week, and then divided into groups. The experiment was divided into a control group, a chemotherapeutic agent group, and a group of the compound as shown in Formula I, each of which comprised 10 mice, to perform the administration experiment, for which the administration dosage, mode, time and frequency were shown in Table 3. The control group: being injected or intragastrically administered with the same solvent as that used in the group of the compound as shown in Formula I (the injection mode and time were shown in Table 3), and then being injected or intragastrically administered with the same solvent as that used in the chemotherapeutic agent group (the administration mode was shown in Table 3); the chemotherapeutic agent group: being injected or intragastrically administered with the same solvent as that used in the group of the compound as shown in Formula I (the administration mode and time were shown in Table 3), and then being injected or intragastrically administered with the chemotherapeutic agent (the type, administration mode and dosage were shown in Table 3); the group of the compound as shown in Formula I: being injected or intragastrically administered with the compound as shown in Formula I (the administration mode and time were shown in Table 3), and then being administered with the chemotherapeutic agent (the administration mode and dosage were shown in Table 3).\n(§1) The scoring of diarrhea can refer to the method of Akinobu Kurita (Cancer Chemother Pharmacol 2000; 46:211-20.), Grade 0: normal feces; Grade 1: mild diarrhea, the stools is slightly wet and soft; Grade 2: moderate diarrhea, loose stools and mild perianal contamination; Grade 3: severe diarrhea, watery stools and accompanied by severe perianal staining (see FIG. 1). It is regarded as effective remission when the diarrhea grading of mice in the group of the compound as shown in Formula I is reduced compared with the average diarrhea grading of mice in the chemotherapeutic agent group.\n(§2) The diarrhea grading of mice was observed and recorded every day. At the end of the experiment, the number of mice in the group of the compound as shown in Formula I whose diarrhea grading was lower than that of mice in the chemotherapeutic agent group was recorded. Table 3 lists various animal experiment combinations of chemotherapeutic agents and the compound as shown in Formula I, as well as the corresponding experimental results. (Relative remission rate %=the number of mice in the group of the compound as shown in Formula I whose diarrhea has been effectively relieved/the total number of mice in the group of the compound as shown in Formula I*100%. The establishment rate of diarrhea model in the chemotherapeutic agent group was 50%-70%, that is, about 5-7 of 10 mice developed diarrhea during the experiment, and there were cases of individual mice death or not developing diarrhea.)"}, "[2]": {"test_system": "Balb/c mice, diarrhea caused by continuous administration of a chemotherapeutic agent", "experiment": "Relieving effect on diarrhea caused by the continuous administration of a chemotherapeutic agent (Examples 365-384)", "format": "in vivo", "text": "Balb/c mice were fed for 1 week, and then divided into groups. The experiment was divided into a control group, a chemotherapeutic agent group, and a group of the compound as shown in Formula I, each of which comprised 10 mice, to perform the administration experiment, for which the administration dosage, mode, time and frequency were shown in Table 5. The control group: being injected or intragastrically administered with the same solvent as that used in the group of the compound as shown in Formula I (the administration mode and time were shown in Table 5), and then being injected or intragastrically administered with the same solvent as that used in the chemotherapeutic agent group (the administration mode was shown in Table 5); the chemotherapeutic agent group: being injected or intragastrically administered with the same solvent as that used in the group of the compound as shown in Formula I (the administration mode and time were shown in Table 5), and then being injected or intragastrically administered with the chemotherapeutic agent (the type, administration mode, time and dosage were shown in Table 5); the group of the compound as shown in Formula I: being injected or intragastrically administered with the compound as shown in Formula I (the administration mode and time were shown in Table 5), and then being administered with the chemotherapeutic agent (the type, administration mode, time and dosage were shown in Table 5).\nas §1, with “0):” for “0:”\nas §2, with “5” for “3”, “50%-80%,” for “50%-70%,”, “5-8” for “5-7”"}}, "data": [{"smiles": "CN1CCN(c2ccc(Nc3ncc4cc5n(c4n3)C3(CCCCC3)CNC5=O)nc2)CC1", "note": "[Compound I, Trilaciclib]", "values": [{"measurement": "Relative remission rate", "setting": "[1]; Ex 166, Fluorouracil 50 + oxaliplatin 5 + irinotecan 50 + tetrahydrofolic acid 90 mg/kg intraperitoneal single, compound 150 mg/kg oral single 12 h before, cycle 7 days", "value": 40, "unit": "%"}, {"measurement": "Relative remission rate", "setting": "[1]; Ex 167, Fluorouracil 50 + oxaliplatin 5 + irinotecan 50 + tetrahydrofolic acid 90 mg/kg intraperitoneal single, compound 150 mg/kg oral single 24 h before, cycle 7 days", "value": 20, "unit": "%"}, {"measurement": "Relative remission rate", "setting": "[1]; Ex 168, Fluorouracil 50 + oxaliplatin 5 + irinotecan 50 + tetrahydrofolic acid 90 mg/kg intraperitoneal single, compound 150 mg/kg oral single 0.5 h before, cycle 7 days", "value": 40, "unit": "%"}, {"measurement": "Relative remission rate", "setting": "[1]; Ex 169, Fluorouracil 50 + oxaliplatin 5 + irinotecan 50 + tetrahydrofolic acid 90 mg/kg intraperitoneal single, compound 150 mg/kg oral single 4 h before, cycle 7 days", "value": 60, "unit": "%"}, {"measurement": "Relative remission rate", "setting": "[1]; Ex 170, Fluorouracil 50 + oxaliplatin 5 + irinotecan 50 + tetrahydrofolic acid 90 mg/kg intraperitoneal single, compound 150 mg/kg oral single 8 h before, cycle 7 days", "value": 80, "unit": "%"}, {"measurement": "Relative remission rate", "setting": "[1]; Ex 171, Fluorouracil 50 + oxaliplatin 5 + irinotecan 50 + tetrahydrofolic acid 90 mg/kg intraperitoneal single, compound 150 mg/kg oral single 12 h before, cycle 7 days", "value": 40, "unit": "%"}, {"measurement": "Relative remission rate", "setting": "[1]; Ex 172, Fluorouracil 50 + oxaliplatin 5 + irinotecan 50 + tetrahydrofolic acid 90 mg/kg intraperitoneal single, compound 150 mg/kg oral single 24 h before, cycle 7 days", "value": 20, "unit": "%"}, {"measurement": "Relative remission rate", "setting": "[1]; Ex 190, Fluorouracil 100 + oxaliplatin 10 + irinotecan 200 + tetrahydrofolic acid 100 mg/kg oral single, compound 100 mg/kg subcutaneous single 1 h before, cycle 7 days", "value": 60, "unit": "%"}, {"measurement": "Relative remission rate", "setting": "[1]; Ex 191, Fluorouracil 100 + oxaliplatin 10 + irinotecan 200 + tetrahydrofolic acid 100 mg/kg oral single, compound 100 mg/kg subcutaneous single 2 h before, cycle 7 days", "value": 50, "unit": "%"}, {"measurement": "Relative remission rate", "setting": "[1]; Ex 192, Fluorouracil 100 + oxaliplatin 10 + irinotecan 200 + tetrahydrofolic acid 100 mg/kg oral single, compound 100 mg/kg subcutaneous single 4 h before, cycle 7 days", "value": 30, "unit": "%"}, {"measurement": "Relative remission rate", "setting": "[1]; Ex 193, Fluorouracil 100 + oxaliplatin 10 + irinotecan 200 + tetrahydrofolic acid 100 mg/kg oral single, compound 100 mg/kg subcutaneous single 6 h before, cycle 7 days", "value": 30, "unit": "%"}, {"measurement": "Relative remission rate", "setting": "[1]; Ex 196, Gemcitabine (GEM) 120 mg/kg intraperitoneal single, compound 100 mg/kg oral single 12 h before, cycle 8 days", "value": 50, "unit": "%"}, {"measurement": "diarrhea gradings compared with the chemotherapeutic agent group", "setting": "[1]; administered before the chemotherapeutic agent, Table 3 and FIG. 2", "value": "relieved to different degrees"}, {"measurement": "Relative remission rate (%)", "setting": "[2]; Example 365, Fluorouracil (5-Fu) intraperitoneal injection 70 mg/kg once a day, for 3 days, compound intravenous injection 100 mg/kg once a day, for 3 days, 2 h before chemotherapeutic agent, cycle 10 days", "value": 60, "unit": "%"}, {"measurement": "Relative remission rate (%)", "setting": "[2]; Example 366, Fluorouracil (5-Fu) intraperitoneal injection 70 mg/kg once a day, for 3 days, compound intravenous injection 100 mg/kg once a day, for 3 days, 4 h before chemotherapeutic agent, cycle 10 days", "value": 40, "unit": "%"}, {"measurement": "Relative remission rate (%)", "setting": "[2]; Example 367, Fluorouracil (5-Fu) intraperitoneal injection 70 mg/kg once a day, for 3 days, compound intravenous injection 100 mg/kg once a day, for 3 days, 6 h before chemotherapeutic agent, cycle 10 days", "value": 30, "unit": "%"}, {"measurement": "Relative remission rate (%)", "setting": "[2]; Example 368, Fluorouracil (5-Fu) intraperitoneal injection 70 mg/kg once a day, for 3 days, compound intravenous injection 100 mg/kg once a day, for 3 days, 8 h before chemotherapeutic agent, cycle 10 days", "value": 20, "unit": "%"}, {"measurement": "Relative remission rate (%)", "setting": "[2]; Example 369, Fluorouracil (5-Fu) intraperitoneal injection 70 mg/kg once a day, for 5 days, compound intraperitoneal injection 100 mg/kg once a day, for 5 days, 2 h before chemotherapeutic agent, cycle 9 days", "value": 50, "unit": "%"}, {"measurement": "Relative remission rate (%)", "setting": "[2]; Example 370, Fluorouracil (5-Fu) intraperitoneal injection 70 mg/kg once a day, for 5 days, compound intraperitoneal injection 100 mg/kg once a day, for 5 days, 4 h before chemotherapeutic agent, cycle 9 days", "value": 30, "unit": "%"}, {"measurement": "Relative remission rate (%)", "setting": "[2]; Example 371, Fluorouracil (5-Fu) intraperitoneal injection 70 mg/kg once a day, for 5 days, compound intraperitoneal injection 100 mg/kg once a day, for 5 days, 6 h before chemotherapeutic agent, cycle 9 days", "value": 20, "unit": "%"}, {"measurement": "Relative remission rate (%)", "setting": "[2]; Example 372, Fluorouracil (5-Fu) intraperitoneal injection 70 mg/kg once a day, for 5 days, compound intraperitoneal injection 100 mg/kg once a day, for 5 days, 8 h before chemotherapeutic agent, cycle 9 days", "value": 10, "unit": "%"}, {"measurement": "Relative remission rate (%)", "setting": "[2]; Example 376, Fluorouracil (5-Fu) intraperitoneal injection 70 mg/kg once a day, for 7 days, compound intraperitoneal injection 125 mg/kg once a day, for 7 days, 2 h before chemotherapeutic agent, cycle 10 days", "value": 10, "unit": "%"}, {"measurement": "Relative remission rate (%)", "setting": "[2]; Example 383, Fluorouracil (5-Fu) intravenous injection 70 mg/kg once a day for 3 days, compound oral administration 100 mg/kg once a day, for 3 days, 6 h before chemotherapeutic agent, cycle 8 days", "value": 50, "unit": "%"}, {"measurement": "Relative remission rate (%)", "setting": "[2]; Example 384, Fluorouracil (5-Fu) oral administration 50 mg/kg once a day, for 14 days, compound intraperitoneal injection 100 mg/kg once a day, for 14 days, 8 h before chemotherapeutic agent, cycle 14 days", "value": "Ineffective"}, {"measurement": "relieving effect on diarrhea", "setting": "[2]; continuous administration of fluorouracil for 14 days", "value": "ineffective"}, {"measurement": "relieving effects on diarrhea", "setting": "[2]; continuous administration of the chemotherapeutic agent for 7 days or less", "value": "have relieving effects"}, {"measurement": "relieving effects on diarrhea", "setting": "[2]; continuous administration of the chemotherapeutic agent for less than 7 days", "value": "significant"}]}]}
